The test concerns T1, β-glucosidase from almonds (β-Glu).
T1 construct: gene AH; free enzyme
The test can be described thus: p-nitrophenol release at […] nm, Lineweaver-Burk. Conditions: free enzyme; standard assay 0.1 M sodium acetate pH 6.0, 37 °C (pH and temperature of the kinetic runs not restated); apparent constant. Type of test: biochemical.

A word on the Km: it is the substrate concentration at which the rate is half of its maximum.

Consider `O=[N+]([O-])c1ccc(O[C@@H]2O[C@H](CO)[C@@H](O)[C@H](O)[C@H]2O)cc1` [p-nitrophenyl-β-D-glucopyranoside], for which the Km was determined as 2.6 mM.
